{
  "source": "patent US20130142847A1",
  "about": "“S-ADENOSYLMETHIONINE FORMULATIONS WITH ENHANCED BIOAVAILABILITY” (Methylation Sciences, Inc., priority 2009, published 2013)",
  "key": {"Caco-2 cell monolayers [1]": {"system": "Caco-2 cell monolayers", "assay": "24 hour resistance recovery test (Caco-2 cell recovery post treatment)", "type": "cell-based, human", "experimental": "As part of these in vitro studies, the degree of Caco-2 cell recovery (as observed by degree of permeability and cell attachment 24 hours post treatment with each tight junction modulator) was also investigated. This 24 hour resistance recovery test is an indirect measure of epithelial cell disruption and data supporting a trend toward less in vitro disruption may be associated with less impact in vivo."}, "[2]": {"assay": "Single dose pharmacokinetic study of enteric coated SAMe capsules in fasted male beagle dogs", "type": "in vivo", "conditions": "for effect on in vivo bioavailability of SAMe / amount of SAMe in the plasma versus control: beagle dogs, capsule 200 mg SAMe ion + 200 mg enhancer vs control capsule, result in words", "experimental": "Following collection, samples were centrifuged (at 4° C.) to separate the plasma fraction from the blood cells. The resulting plasma fraction was recovered and stored frozen (at −80° C.) using polypropylene tubes pending bioanalytical analysis.\nThis method employs stable-isotope dilution liquid chromatography-electrospray […] tandem mass spectrometry (LC-ESI-MS/MS) to determine SAMe and SAH in plasma."}, "Caco-2 cell monolayers [3]": {"system": "Caco-2 cell monolayers", "assay": "Caco-2 permeability of SAMe in the presence of tight junction modulators (Examples 3a, 3c)", "conditions": "for effect on SAMe uptake / SAMe permeability: in the presence of the agent, result in words; for change in SAMe permeability across the Caco-2 cell monolayer: sulfobetaine 0.15 mM as the enhancer; for Permeability Coefficient: SAMe permeability; for Fold Transport Increase: SAMe transport vs SAMe control", "quoted_text": "(§1) Similar to the description above, the Caco-2 cell line was obtained from ATCC and grown in DMEM (Sigma-Aldrich) supplemented with 20% FBS (Sigma-Aldrich), 100 uM non-essential amino acids (Sigma-Aldrich) and 2 mM L-glutamine (Sigma-Aldrich). The Caco-2 cells grown in tissue culture flasks were trypsinized, suspended in medium, and the suspensions were applied to wells of a collagen-coated BioCoat Cell Environment in 24-well format at 24,500 cells per well. The cells were allowed to grow and differentiate for three weeks, feeding at 2-day intervals.\n(§2) For apical to basolateral permeability, a 2 mM aqueous solution of SAMe tosylate disulfate was added to the apical side and the amount of permeation was determined on the basolateral side. The apical and basolateral side buffers contained modified Transport Buffer (25 mM HEPES, 1× Hank's Balanced Salt Solution (Sigm-Aldrich)) pH 7.4. Caco-2 cells were incubated with these buffers for 2 hours, and the receiver side buffer was removed for analysis by LC/MS/MS. The receiver, donor, and dosing solution were diluted with an equal volume of 0.2 N HCl immediately after the assay in order to increase SAMe stability. Donor and dosing solution were diluted 100-fold to ensure that the concentration was within the linear range of the assay.\n(§3) The permeability (Papp) of SAMe is calculated using the following formula:\n(§4) Where dQ/dt is the rate of permeation, C0 is the initial concentration of test agent, and A is the area of the monolayer.\n(§5) In vitro Caco-2 testing was performed as detailed above using 0.15 mM of sulfobetaine-10, sulfobetaine-12, sulfobetaine-14, sulfobetaine-16, or sulfobetaine-18 as the enhancer."}, "Caco-2 cell monolayers [4]": {"system": "Caco-2 cell monolayers", "assay": "Permeability of SAMe across Caco-2 cell monolayers (Example 3)", "conditions": "for Papp_a-b Apical to Basal: apical to basolateral; for Papp_a-b Apical to Basal / Papp_b-a Basal to Apical: HBSS pH 7.4, 120 minute incubation, SAMe salt 2 mM; for Papp_b-a Basal to Apical: basolateral to apical", "quoted_text": "(§6) In these models, pure cell lines are grown on a semi-permeable membrane. Drug formulations are placed on the apical or basolateral side of the cell monolayer and transport is determined via measurement of drug concentrations on the other side of the membrane.\n(§7) The Caco-2 cell line utilized here was from the American Type Culture Collection (ATCC). Caco-2 cells are grown in Dulbecco's modified Eagle's medium (DMEM, Gibco) supplemented with 20% FBS (fetal bovine serum, Gibco), 100 uM non-essential amino acids (NEAA, Gibco) and 2 mM L-glutamine (Gibco). A Beckton Dickinson BIOCOAT® HTS Caco-2 Assay System Kit is used resulting in 6.6×10^5 cells/cm^2 seeding density (BIOCOAT is a registered trademark of Collaborative Biomedical Products, Inc., Bedford, Mass., USA). The cells used in transport studies are grown for 3 days before the experiments. The culturing conditions are 37° C. in an atmosphere of 5% CO2 and 100% humidity.\n(§8) For permeability across Caco-2 cell monolayers, the transport medium used was Hank's Buffered Salt Solution (HBSS; purchased from Gibco) containing D-glucose, and HEPES pH adjusted to 7.4. A 2 mM aqueous solution of either SAMe tosylate disulfate or SAMe 1,4 butanedisulfonate was added on the apical or basolateral side according to the manufacturer's procedure for the Caco-2 kit. Samples were measured after 120 minute incubation by liquid chromatography-mass spectrometry (LC/MS). The integrity of the monolayers was monitored using Lucifer Yellow Assay. […] Propranolol is a high permeability marker and was utilized as a positive control for a readily absorbed molecule."}, "[5]": {"assay": "Permeability of SAMe across Caco-2 cell monolayers (Example 3)", "conditions": "human, Caco-2, pH 7.4", "quoted_text": "as §6, §7, §8"}, "[6]": {"assay": "Caco-2 permeability of SAMe in the presence of tight junction modulators (Examples 3a, 3c)", "conditions": "human, Caco-2, pH 7.4, Permeability Coefficient, permeability control compound itself, 50 uM", "quoted_text": "as §1, §2, §3, §4, §5"}, "[7]": {"assay": "Plasma SAMe metabolites after 1600 mg of a commercially available SAMe formulation", "type": "in vivo", "conditions": "all time points after 1600 mg dose of commercially available SAMe; seven subjects", "experimental": "This finding is in contrast to the general dogma surrounding SAMe metabolism which continually reports that low SAMe bioavailability is due to active metabolism by the liver upon administration. […] In order to test this theory, the inventors measured the level of S-adenosyl homocysteine (SAH), the primary metabolite of SAMe, at various time points after administration of a 1600 mg dose of a commercially available SAMe formulation."}, "[8]": {"conditions": "literature reports; cited from earlier work"}, "cultured rat hepatocytes": {"system": "cultured rat hepatocytes", "conditions": "McMillan et al. 2005; cited from earlier work"}, "Caco-2 cells": {"system": "Caco-2 cells", "conditions": "McMillan et al. 2005; cited from earlier work"}, "[9]": {"conditions": "plasma, fasted male beagle dogs, single oral enteric coated capsule, 200 mg SAMe ion with or without 200 mg enhancer"}},
  "data": [
    {"smiles": "CCCCCCCCCCCCCCCC[N+](C)(C)CCCS(=O)(=O)[O-]", "note": "[3-(N,N-Dimethylpalmitylammonio)propanesulfonate]", "values": [
      {"measurement": "TEER Resist. 24 hour post assay", "setting": "Caco-2 cell monolayers [1]; enhancer 0.6 mM", "value": 33, "unit": "ohms"},
      {"measurement": "effect on in vivo bioavailability of SAMe / amount of SAMe in the plasma versus control", "setting": "[2]", "value": "significant increase in the amount of SAMe present in the plasma"},
      {"measurement": "effect on SAMe uptake / SAMe permeability", "setting": "Caco-2 cell monolayers [3]", "value": "marked increase in SAMe permeability"},
      {"measurement": "change in SAMe permeability across the Caco-2 cell monolayer", "setting": "Caco-2 cell monolayers [3]", "value": "at least a five-fold increase"}
    ]},
    {"smiles": "CCCCCCCCCCCCCCCC(=O)OC(CC(=O)O)C[N+](C)(C)C.[Cl-]", "note": "(stereo not drawn) [Palmitoyl Carnitine Chloride (PCC), Palmitoyl carnitine chloride]", "values": [
      {"measurement": "Permeability Coefficient", "setting": "Caco-2 cell monolayers [3]; test article 0.15 mM, run 2", "value": 0.78, "unit": "×10⁻⁶ cm/s"},
      {"measurement": "Permeability Coefficient", "setting": "Caco-2 cell monolayers [3]; test article 0.15 mM, run 4", "value": 5, "unit": "×10⁻⁶ cm/s"},
      {"measurement": "Permeability Coefficient", "setting": "Caco-2 cell monolayers [3]; test article 0.4 mM, run 4", "value": 10, "unit": "×10⁻⁶ cm/s"},
      {"measurement": "effect on SAMe uptake / SAMe permeability", "setting": "Caco-2 cell monolayers [3]", "value": "marked increase in SAMe permeability"}
    ]},
    {"smiles": "CC(C)NCC(O)COc1cccc2ccccc12", "note": "(stereo not drawn) [Propranolol]", "values": [
      {"measurement": "Papp_a-b Apical to Basal", "setting": "Caco-2 cell monolayers [4]", "value": 22.4, "unit": "×10⁻⁶ cm/s"},
      {"measurement": "Papp_b-a Basal to Apical", "setting": "Caco-2 cell monolayers [4]", "value": 18.4, "unit": "×10⁻⁶ cm/s"},
      {"measurement": "Papp A→B at 120 min", "setting": "[5]", "value": 22.4, "unit": "×10⁻⁶ cm/s"},
      {"measurement": "Papp B→A at 120 min", "setting": "[5]", "value": 18.4, "unit": "×10⁻⁶ cm/s"}
    ]},
    {"smiles": "CNC(=C[N+](=O)[O-])NCCSCc1ccc(CN(C)C)o1", "note": "[Ranitidine, reference compound]", "values": [
      {"measurement": "Papp at 2 h, 50 uM", "setting": "[6]; run 2", "value": 0.91, "unit": "×10⁻⁶ cm/s"},
      {"measurement": "Papp at 2 h, 50 uM", "setting": "[6]; run 3", "value": 0.91, "unit": "×10⁻⁶ cm/s"},
      {"measurement": "Papp at 2 h, 50 uM", "setting": "[6]; run 4", "value": 1, "unit": "×10⁻⁶ cm/s"}
    ]},
    {"smiles": "Nc1ncnc2c1ncn2[C@@H]1O[C@H](CSCC[C@H](N)C(=O)O)[C@@H](O)[C@H]1O", "note": "[SAH, S-adenosyl homocysteine]", "values": [
      {"measurement": "plasma concentration of SAH relative to SAMe", "setting": "[7]", "value": "significantly lower than the level of SAMe itself"}
    ]},
    {"smiles": "C[S+](CC[C@H](N)C(=O)[O-])C[C@H]1O[C@@H](n2cnc3c(N)ncnc32)[C@H](O)[C@@H]1O.O=S(=O)(O)CCCCS(=O)(=O)O", "note": "(stereo partly drawn) [SAMe 1,4 butanedisulfonate]", "values": [
      {"measurement": "Papp_a-b Apical to Basal", "setting": "Caco-2 cell monolayers [4]", "value": 0.5, "unit": "×10⁻⁶ cm/s"},
      {"measurement": "Papp_b-a Basal to Apical", "setting": "Caco-2 cell monolayers [4]", "value": 0.6, "unit": "×10⁻⁶ cm/s"}
    ]},
    {"smiles": "C[S+](CC[C@H](N)C(=O)O)C[C@H]1O[C@@H](n2cnc3c(N)ncnc32)[C@H](O)[C@@H]1O", "note": "(stereo partly drawn) [SAMe, S-adenosyl-L-methionine]", "values": [
      {"measurement": "SAMe bioavailability when orally administered", "setting": "[8]", "value": "less than 5%"},
      {"measurement": "absorption by cultured rat hepatocytes", "setting": "cultured rat hepatocytes", "value": "poorly absorbed"},
      {"measurement": "transport through a monolayer of Caco-2 cells", "setting": "Caco-2 cells", "value": "poorly transported"},
      {"measurement": "fold increase in SAMe permeability", "setting": "Caco-2 cell monolayers [4]; calcium-free buffer", "value": "13-24 fold"}
    ]},
    {"smiles": "CCCCCCCCCC(=O)[O-].[Na+]", "note": "[Sodium Caprate]", "values": [
      {"measurement": "effect on in vivo bioavailability of SAMe / amount of SAMe in the plasma versus control", "setting": "[2]", "value": "did not enhance the in vivo bioavailability of SAMe"}
    ]},
    {"smiles": "CCCCCCCC[N+](C)(C)CCCS(=O)(=O)[O-]", "note": "[Sulfobetaine-8]", "values": [
      {"measurement": "TEER Resist. 24 hour post assay", "setting": "Caco-2 cell monolayers [1]; enhancer 0.15 mM", "value": 1553, "unit": "ohms"},
      {"measurement": "Permeability Coefficient", "setting": "Caco-2 cell monolayers [3]; enhancer 0.15 mM (Table 7)", "value": 0.218, "unit": "×10⁻⁶ cm/s"},
      {"measurement": "Fold Transport Increase", "setting": "Caco-2 cell monolayers [3]; enhancer 0.15 mM (Table 7)", "value": 1.2, "unit": "X"}
    ]},
    {"smiles": "CCCCCCCCCCCC[N+](C)(C)CCCS(=O)(=O)[O-]", "note": "[Sulfobetaine-12]", "values": [
      {"measurement": "TEER Resist. 24 hour post assay", "setting": "Caco-2 cell monolayers [1]; enhancer 0.15 mM", "value": 1923, "unit": "ohms"},
      {"measurement": "Permeability Coefficient", "setting": "Caco-2 cell monolayers [3]; enhancer 0.15 mM (Table 7)", "value": 0.257, "unit": "×10⁻⁶ cm/s"},
      {"measurement": "Fold Transport Increase", "setting": "Caco-2 cell monolayers [3]; enhancer 0.15 mM (Table 7)", "value": 1.4, "unit": "X"},
      {"measurement": "change in SAMe permeability across the Caco-2 cell monolayer", "setting": "Caco-2 cell monolayers [3]", "value": "did not improve SAMe permeability"}
    ]},
    {"smiles": "CCCCCCCCCCCCCC[N+](C)(C)CCCS(=O)(=O)[O-]", "note": "[Sulfobetaine-14]", "values": [
      {"measurement": "TEER Resist. 24 hour post assay", "setting": "Caco-2 cell monolayers [1]; enhancer 0.15 mM", "value": 1892, "unit": "ohms"},
      {"measurement": "effect on in vivo bioavailability of SAMe / amount of SAMe in the plasma versus control", "setting": "[2]", "value": "significant increase in the bioavailability of SAMe"},
      {"measurement": "SAMe AUC", "setting": "[2]; [9]", "value": 10226, "unit": "ng·h/mL"},
      {"measurement": "SAMe Cmax", "setting": "[2]; [9]", "value": 4148, "unit": "ng/mL"},
      {"measurement": "Permeability Coefficient", "setting": "Caco-2 cell monolayers [3]; enhancer 0.15 mM (Table 7)", "value": 0.654, "unit": "×10⁻⁶ cm/s"},
      {"measurement": "Fold Transport Increase", "setting": "Caco-2 cell monolayers [3]; enhancer 0.15 mM (Table 7)", "value": 5.0, "unit": "X"},
      {"measurement": "change in SAMe permeability across the Caco-2 cell monolayer", "setting": "Caco-2 cell monolayers [3]", "value": "at least a five-fold increase"}
    ]},
    {"smiles": "CCCCCCCCCCCCCCCCCC[N+](C)(C)CCCS(=O)(=O)[O-]", "note": "[Sulfobetaine-18]", "values": [
      {"measurement": "TEER Resist. 24 hour post assay", "setting": "Caco-2 cell monolayers [1]; enhancer 0.15 mM", "value": 292, "unit": "ohms"},
      {"measurement": "Permeability Coefficient", "setting": "Caco-2 cell monolayers [3]; enhancer 0.15 mM (Table 7)", "value": 0.649, "unit": "×10⁻⁶ cm/s"},
      {"measurement": "Fold Transport Increase", "setting": "Caco-2 cell monolayers [3]; enhancer 0.15 mM (Table 7)", "value": 5.0, "unit": "X"},
      {"measurement": "change in SAMe permeability across the Caco-2 cell monolayer", "setting": "Caco-2 cell monolayers [3]", "value": "at least a five-fold increase"}
    ]},
    {"smiles": "CC(=O)CC(c1ccccc1)c1c(O)c2ccccc2oc1=O", "note": "(stereo not drawn) [Warfarin, reference compound]", "values": [
      {"measurement": "Papp at 2 h, 50 uM", "setting": "[6]; run 2", "value": 48.8, "unit": "×10⁻⁶ cm/s"},
      {"measurement": "Papp at 2 h, 50 uM", "setting": "[6]; run 3", "value": 49, "unit": "×10⁻⁶ cm/s"},
      {"measurement": "Papp at 2 h, 50 uM", "setting": "[6]; run 4", "value": 46.6, "unit": "×10⁻⁶ cm/s"}
    ]},
    {"smiles": "CCCCCCCCCC[N+](C)(C)CCCS(=O)(=O)[O-]", "note": "[sulfobetaine-10]", "values": [
      {"measurement": "change in SAMe permeability across the Caco-2 cell monolayer", "setting": "Caco-2 cell monolayers [3]", "value": "did not improve SAMe permeability"}
    ]}
  ]
}
